The source of these data is ChEMBL document CHEMBL1135518 (J Med Chem, 2002).

Assay [1] has as its target T1, Serotonin 3 (5-HT3) receptor (Rattus norvegicus, UniProt P35563+Q9JJ16).
T1 sequence (P35563 whole entry): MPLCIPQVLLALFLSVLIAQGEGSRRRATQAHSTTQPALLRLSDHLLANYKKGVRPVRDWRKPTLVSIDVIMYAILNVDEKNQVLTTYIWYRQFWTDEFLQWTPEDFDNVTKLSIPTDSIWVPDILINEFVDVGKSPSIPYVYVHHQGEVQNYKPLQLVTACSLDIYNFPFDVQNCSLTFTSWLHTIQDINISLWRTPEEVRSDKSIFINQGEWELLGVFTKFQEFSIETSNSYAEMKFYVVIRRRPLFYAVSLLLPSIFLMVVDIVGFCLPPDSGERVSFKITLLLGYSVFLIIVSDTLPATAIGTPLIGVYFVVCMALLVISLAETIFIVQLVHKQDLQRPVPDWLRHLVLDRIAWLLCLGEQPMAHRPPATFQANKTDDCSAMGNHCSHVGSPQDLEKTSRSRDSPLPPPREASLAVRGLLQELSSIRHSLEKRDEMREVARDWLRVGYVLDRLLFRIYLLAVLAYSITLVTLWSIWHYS
T1 sequence (Q9JJ16 whole entry): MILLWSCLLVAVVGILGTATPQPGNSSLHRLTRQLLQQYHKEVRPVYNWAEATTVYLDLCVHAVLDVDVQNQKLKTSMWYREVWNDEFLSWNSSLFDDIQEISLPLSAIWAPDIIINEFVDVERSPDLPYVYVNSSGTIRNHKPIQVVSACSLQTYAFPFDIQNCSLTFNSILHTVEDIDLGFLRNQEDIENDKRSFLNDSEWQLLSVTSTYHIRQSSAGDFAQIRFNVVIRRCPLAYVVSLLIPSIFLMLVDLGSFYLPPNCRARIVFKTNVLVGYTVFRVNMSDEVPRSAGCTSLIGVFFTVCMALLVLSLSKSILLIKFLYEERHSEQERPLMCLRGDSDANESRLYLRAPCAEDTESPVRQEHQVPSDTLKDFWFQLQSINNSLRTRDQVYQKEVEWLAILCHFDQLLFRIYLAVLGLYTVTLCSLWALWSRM
Briefly: The binding affinity at 5-hydroxytryptamine 3 receptor was determined using [3H]LY-278584. The assay is classed as protein-complex assay.

Assay [2] concerns Rattus norvegicus. In words: The increase in the extracellular levels of NA in the rat ventral hippocampus at a dose of 5.0 mg/kg sc measured by in vivo microdialysis. Type of assay: functional. The following applies: route subcutaneous.
Assay [3] addresses T2, 5-hydroxytryptamine receptor 2C (Rattus norvegicus, UniProt P08909).
T2 sequence (P08909 whole entry): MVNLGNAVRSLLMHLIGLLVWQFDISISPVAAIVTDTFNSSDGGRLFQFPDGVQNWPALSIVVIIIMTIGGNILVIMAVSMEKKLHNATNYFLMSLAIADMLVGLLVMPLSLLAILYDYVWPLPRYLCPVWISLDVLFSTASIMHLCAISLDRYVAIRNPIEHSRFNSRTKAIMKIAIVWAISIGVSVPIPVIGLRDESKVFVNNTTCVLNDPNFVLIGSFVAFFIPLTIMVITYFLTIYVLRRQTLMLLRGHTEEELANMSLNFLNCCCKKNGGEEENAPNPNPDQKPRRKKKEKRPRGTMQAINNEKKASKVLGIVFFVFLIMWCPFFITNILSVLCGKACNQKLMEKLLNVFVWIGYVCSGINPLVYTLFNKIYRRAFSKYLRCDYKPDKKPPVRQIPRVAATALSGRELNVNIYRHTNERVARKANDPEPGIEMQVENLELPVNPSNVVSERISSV
In words: The binding affinity at 5-hydroxytryptamine 2C receptor was determined using [3H]mesulergine.

The nature of assay [4]: The binding affinity at the Histamine H1 receptor determined using [3H]pyrilamine. Set-up: species or system Cavia porcellus.
In assay [5] the test system is Rattus norvegicus. Briefly: The increase in the extracellular levels of 5-HIAA in the rat ventral hippocampus at a dose of 2.5 mg/kg sc measured by in vivo microdialysis. The assay is classed as functional. The following applies: route subcutaneous.
Assay [6] relates to Rattus norvegicus. Briefly: The increase in the extracellular levels of 5-HT in the rat ventral hippocampus at a dose of 2.5 mg/kg sc measured by in vivo microdialysis. Type of assay: functional. As to conditions: route subcutaneous.
In assay [7] the test system is Rattus norvegicus. Briefly: The increase in the extracellular levels of DOPAC in the rat ventral hippocampus at a dose of 2.5 mg/kg sc measured by in vivo microdialysis. The following applies: route subcutaneous. The assay is classed as functional.

pKi: −log10 of the molar value.

By pKi is commonly meant the negative decadic logarithm of the Ki, by convention in mol/L. High values mean a low Ki, low ones a high Ki. Consider `COc1cccc2c1N1CCN(C)CC1c1ccccc1C2` (racemic), for which the pKi was 5.54 in assay [1] and 9.68 in assay [3]. Besides, the Increase with Rattus norvegicus [2] is 200%.

For the molecule `COc1cccc2c1N1CCN(C)C[C@@H]1c1ccccc1C2`, the values for the pKi in assay [1], in assay [4] and in assay [3] were < 5.30, 7.89 and 9.80, respectively. In addition, the Increase is reported as 120% in the assay on Rattus norvegicus [5], 200% in the assay with Rattus norvegicus [6] and 130% with Rattus norvegicus [7].

`COc1cccc2c1N1CCN(C)C[C@H]1c1ccccc1C2`: the results for the negative logarithm of the Ki (pKi) in assay [1], in assay [4] and in assay [3] were 5.78, 7.85 and 9.41, respectively. Further, the Increase amounted to 120% in the assay with Rattus norvegicus [5], 200% with Rattus norvegicus [6], 160% in the assay with Rattus norvegicus [7] and 200% with Rattus norvegicus [2].
